Columns and labels:
[1] = Degree of solubility of rupatadine free base in each plaster ingredient (HPLC method); type: physicochemical
From the text: Test Example 1: Investigation of Degree of Solubility of Rupatadine Free Base in Each Ingredient
The degree of solubility of a rupatadine free base (sometimes also referred to as “rupatadine base”) as an active ingredient in each plaster ingredient was investigated.
Levulinic acid as a solubilizer, oleyl oleate and isopropyl myristate (IPM) as a softener, and lauromacrogol (BL-4,2: polyoxyethylene lauryl ether) as a surfactant were selected. The degree of solubility of the rupatadine base in each ingredient was investigated.
To 5 mL of each of levulinic acid, oleyl oleate, isopropyl myristate (IPM), and lauromacrogol (BL-4,2), an excessive amount of the rupatadine base was added and stirred. The mixture was filtered through a 0.45-μm membrane filter, to remove an undissolved substance. To 200 μL of the filtrate, methanol was added using a measuring flask to adjust the volume to a desired volume. The mixture was measured by HPLC.
A rupatadine concentration was measured by an external calibration curve method, and the degree of solubility was calculated by specific gravity conversion.

[2] = Degree of solubility of rupatadine base in acrylic adhesive (gravimetric method, presence or absence of crystal); type: physicochemical; conditions: in acrylic adhesive (OH group), 100 μm plaster, crystal observed by microscope
Protocol: For comparison, the degree of solubility of the rupatadine base in an acrylic adhesive as an adhesive base was also investigated.
The degree of solubility of the rupatadine base in the acrylic adhesive was tested by a gravimetric method.
To 1 g (solid content) of the acrylic adhesive, the rupatadine base was added, and the mixture was stirred and degassed by ultrasonic wave.
The adhesive solution was applied so as to have a thickness of 100 μm, and dried. A plaster was observed by a microscope (manufactured by KEYENCE CORPORATION).
The degree of solubility was determined by the presence or absence of crystal.

SMILES: Cc1cncc(CN2CCC(=C3c4ccc(Cl)cc4CCc4cccnc43)CC2)c1 [rupatadine base, 8-chloro-11-[1-[(5-methyl-3-pyridinyl)methyl]-piperidin-4-ylidene]-6,11-dihydro-5H-benzo[5,6]cyclohepta[1,2-b]pyridine]
- Solubility (w/w %) ([1]; in isopropyl myristate (softener)): 2 w/w %
- Solubility (w/w %) ([1]; in lauromacrogol (BL-4,2) (surfactant)): 4 w/w %
- Solubility (w/w %) ([1]; in levulinic acid (solubilizer)): 29 w/w %
- Solubility (w/w %) ([1]; in oleyl oleate (softener)): 2 w/w %
- Solubility (w/w %) [2]: ≤15 to 16< w/w %
